Laboratory results from patent US9688702B2, “Alpha-amino boronic acid derivatives, selective immunoproteasome inhibitors” (Ares Trading S.A, priority 2011, dated 2017).

Legend:
[1] = target: LMP7 (purified human immuno proteasome) (Homo sapiens, UniProt P28062); experiment: Determination of LMP7 activity (fluorescence intensity assay, Suc-LLVY-AMC); format: biochemical; conditions: for IC50: 40 μM Suc-LLVY-AMC, 37° C.
Experimental: Measurement of LMP7 inhibition is performed in 384 well format based on fluorescence intensity assay.
(§1) Purified human immuno proteasome (0.5 nM) and serial diluted compounds in DMSO (range of concentrations from 10 μM to 38 pM) or controls (0.5% DMSO) are incubated for 30 minutes at 37° C. in assay buffer containing 50 mM Tris pH 7.4 and 0.03% SDS. The reaction is initiated by the addition of the fluorogenic peptide substrate, Suc-LLVY-AMC (Bachem I-1395), at a concentration of 40 μM. After 90 minutes of incubation at 37° C., fluorescence intensity is measured at λex=350 nm and λem=450 nm with a fluorescence reader (BMG Pherastar reader or equivalent).
as §1, with “proteasome (0.25” for “proteasome (0.5”

[2] = target: Beta5 (purified human constitutive proteasome) (Homo sapiens, UniProt P28074); experiment: Determination of Beta5 activity (fluorescence intensity assay, Suc-LLVY-AMC); format: biochemical; conditions: purified human constitutive proteasome 1.0 nM, 40 μM Suc-LLVY-AMC, 37° C.
Experimental: Measurement of Beta5 inhibition is performed in 384 well format based on fluorescence intensity assay.
as §1, with “human constitutive” for “human immuno”, “proteasome (1.0” for “proteasome (0.5”, “(Bachem 1-1395),” for “(Bachem I-1395),”

[3] = purified human immuno proteasome 0.25 nM (examples 79, 80, 83, 84, 85, 87, 88, 89, 90, 91, 93, 94, 96, 97, 101 and 110)
[4] = purified human immuno proteasome 0.5 nM

Compound | Selectivity LMP7 vs Beta5 [1] | IC50 [1, 3] [nM] | IC50 [2] [nM] | IC50 [1, 4] [nM]
O=C(CCc1ccccc1)N[C@@H](Cc1coc2ccccc12)B(O)O [Example 94, (R)-(2-(benzofuran-3-yl)-1-(3-phenylpropanamido)ethyl)boronic acid] | +++ (+++: Selectivity > 30) | < 50 | < 50 | –
CN(CC(=O)N[C@@H](Cc1coc2ccccc12)B(O)O)S(C)(=O)=O [Example 91, (R)-(2-(benzofuran-3-yl)-1-(2-(N-methylmethylsulfonamido)acetamido)ethyl)boronic acid] | +++ (+++: Selectivity > 30) | < 50 | 50 to 500 | –
O=C(CCC(=O)c1cccc(-c2ccccc2)c1)N[C@@H](Cc1ccsc1)B(O)O [Example 22, [(1R)-1-[(4-biphenyl-3-yl-4-oxobutanoyl)amino]-2-(3-thienyl)ethyl]boronic acid] | ++ (++: 10 < Selectivity < 30) | – | 500 to 5000 | 50 to 500
COc1ccc(C(=O)C[C@@H](Cc2ccccc2)C(=O)N[C@@H](Cc2ccsc2)B(O)O)cc1 (single isomer, unassigned) [Example 25] | +++ (+++: Selectivity > 30) | – | > 5000 | 50 to 500
COc1ccc(C(=O)CCC(=O)N[C@@H](Cc2ccsc2)B(O)O)cc1 [Example 9, [(1R)-1-{[4-(4-methoxyphenyl)-4-oxobutanoyl]amino}-2-(3-thienyl)ethyl]boronic acid] | ++ (++: 10 < Selectivity < 30) | – | 500 to 5000 | 50 to 500
O=C(CCc1noc(-c2ccccc2)n1)N[C@@H](Cc1cccc(C(F)(F)F)c1)B(O)O [Example 39, {(1R)-1-{[3-(5-phenyl-1,2,4-oxadiazol-3-yl)propanoyl]amino}-2-[3-(trifluoromethyl)phenyl]ethyl}boronic acid] | +++ (+++: Selectivity > 30) | – | 500 to 5000 | 50 to 500
CCc1cccc(C[C@H](NC(=O)CCC(=O)c2ccc(-c3ccccc3)cc2)B(O)O)c1 [Example 17, [(1R)-1-[(4-biphenyl-4-yl-4-oxobutanoyl)amino]-2-(3-ethylphenyl)ethyl]boronic acid] | ++ (++: 10 < Selectivity < 30) | – | 500 to 5000 | 50 to 500
O=C(CC(C(=O)N[C@@H](Cc1ccsc1)B(O)O)c1cccc(Cl)c1)c1ccccc1 (mixture of isomers) [Example 3, [(1R)-1-{[2-(RS)-(3-chlorophenyl)-4-oxo-4-phenylbutanoyl]amino}-2-(3-thienyl)ethyl]boronic acid] | +++ (+++: Selectivity > 30) | – | > 5000 | 50 to 500
COc1ccc(C(=O)CC(Cc2ccccc2)C(=O)N[C@@H](Cc2ccc(OC(F)(F)F)cc2)B(O)O)cc1 (stereo partly drawn) [Example 44, ((1R)-1-(2-benzyl-4-(4-methoxyphenyl)-4-oxobutanamido)-2-(4-(trifluoromethoxy)phenyl)ethyl)boronic acid] | ++ (++: 10 < Selectivity < 30) | – | 50 to 500 | < 50
COc1ccc(CCC(=O)N[C@@H](Cc2coc3ccccc23)B(O)O)cc1 [Example 79, (R)-(2-(benzofuran-3-yl)-1-(3-(4-methoxyphenyl)propanamido)ethyl) boronic acid] | +++ (+++: Selectivity > 30) | < 50 | 50 to 500 | –
COc1ccc(C(=O)C[C@H](Cc2ccccc2)C(=O)N[C@@H](Cc2ccsc2)B(O)O)cc1 (single isomer, unassigned) [Example 24] | +++ (+++: Selectivity > 30) | – | 50 to 500 | < 50
COc1ccc(C[C@H](NC(=O)CCc2noc(-c3ccccc3)n2)B(O)O)cc1C(F)(F)F [Example 56, (R)-(2-(4-methoxy-3-(trifluoromethyl)phenyl)-1-(3-(5-phenyl-1,2,4-oxadiazol-3-yl)propanamido)ethyl)boronic acid] | ++ (++: 10 < Selectivity < 30) | – | 500 to 5000 | 50 to 500
COc1ccccc1CCC(=O)N[C@@H](Cc1coc2ccccc12)B(O)O [Example 82] | ++ (++: 10 < Selectivity < 30) | – | < 50 | < 50

The next lines start with the values.

Selectivity LMP7 vs Beta5 [1] | IC50 [1, 3] [nM] | IC50 [2] [nM] | IC50 [1, 4] [nM] | Compound
– | – | > 5000 | 500 to 5000 | COc1ccccc1C(=O)CCC(=O)N[C@@H](Cc1ccsc1)B(O)O [Example 12, [(1R)-1-{[4-(2-methoxyphenyl)-4-oxobutanoyl]amino}-2-(3-thienyl)ethyl]boronic acid]
++ (++: 10 < Selectivity < 30) | – | 500 to 5000 | 50 to 500 | CCc1cccc(C[C@H](NC(=O)CCC(=O)c2cccc(-c3ccccc3)c2)B(O)O)c1 [Example 19, [(1R)-1-[(4-biphenyl-3-yl-4-oxobutanoyl)amino]-2-(3-ethylphenyl)ethyl]boronic acid]
++ (++: 10 < Selectivity < 30) | – | > 5000 | 50 to 500 | COc1ccc(C(=O)CCC(=O)N[C@@H](Cc2ccsc2)B(O)O)c(OC)c1 [Example 13, [(1R)-1-{[4-(2,4-dimethoxyphenyl)-4-oxobutanoyl]amino}-2-(3-thienyl)ethyl]boronic acid]
– | – | > 5000 | 500 to 5000 | O=C(N[C@@H](Cc1ccsc1)B(O)O)[C@H]1CCCC[C@@H]1C(=O)c1ccccc1 (racemic) [Example 2, [(1R)-1-({[(1RS,2RS)-2-benzoylcyclohexyl]carbonyl}amino)-2-(3-thienyl)ethyl]boronic acid]
+++ (+++: Selectivity > 30) | – | 50 to 500 | < 50 | O=C(CCC1CCCCC1)N[C@@H](Cc1coc2ccccc12)B(O)O [Example 86, (R)-(2-(benzofuran-3-yl)-1-(3-cyclohexylpropanamido)ethyl)boronic acid]
++ (++: 10 < Selectivity < 30) | < 50 | < 50 | – | CCc1cccc(C[C@H](NC(=O)C(Cn2cc(-c3ccccc3)nn2)Cn2ccsc2=O)B(O)O)c1 (stereo partly drawn) [Example 110, ((1R)-2-(3-ethylphenyl)-1-(3-(2-oxothiazol-3(2H)-yl)-2-((4-phenyl-1H-1,2,3-triazol-1-yl)methyl)propanamido)ethyl)boronic acid]
+++ (+++: Selectivity > 30) | – | 500 to 5000 | < 50 | O=C(CCc1cn(-c2ccccc2)nn1)N[C@@H](Cc1ccsc1)B(O)O [Example 41, [(1R)-1-{[3-(1-phenyl-1H-1,2,3-triazol-4-yl)propanoyl]amino}-2-(3-thienyl)ethyl]boronic acid]
++ (++: 10 < Selectivity < 30) | – | > 5000 | 50 to 500 | COc1ccc(C(=O)CCC(=O)N[C@@H](Cc2ccc(F)c(C(F)(F)F)c2)B(O)O)cc1 [Example 50, (R)-(2-(4-fluoro-3-(trifluoromethyl)phenyl)-1-(4-(4-methoxyphenyl)-4-oxobutanamido)ethyl)boronic acid]
+++ (+++: Selectivity > 30) | – | > 5000 | 50 to 500 | COc1ccc(C(=O)CCC(=O)N[C@@H](Cc2cccc(C(F)(F)F)c2)B(O)O)cc1 [Example 26, {(1R)-1-{[4-(4-methoxyphenyl)-4-oxobutanoyl]amino}-2-[3-(trifluoromethyl)phenyl]ethyl}boronic acid]
++ (++: 10 < Selectivity < 30) | – | 500 to 5000 | 50 to 500 | CCc1cccc(C[C@H](NC(=O)Cn2ccc3ccccc3c2=O)B(O)O)c1 [Example 42, ((1R)-2-(3-ethylphenyl)-1-{[(1-oxoisoquinolin-2(1H)-yl)acetyl]amino}ethyl)boronic acid]
++ (++: 10 < Selectivity < 30) | – | 50 to 500 | < 50 | O=C(CCn1cc(-c2ccccc2)nn1)N[C@@H](Cc1ccc(F)c(C(F)(F)F)c1)B(O)O [Example 71, (R)-(2-(4-fluoro-3-(trifluoromethyl)phenyl)-1-(3-(4-phenyl-1H-1,2,3-triazol-1-yl)propanamido)ethyl)boronic acid]
+ (+: Selectivity < 10) | – | 50 to 500 | < 50 | O=C(CCn1nnc2ccccc21)N[C@@H](Cc1ccsc1)B(O)O [Example 35, [(1R)-1-{[3-(1H-1,2,3-benzotriazol-1-yl)propanoyl]amino}-2-(3-thienyl)ethyl]boronic acid]
